Assay results reported in patent US20120190748A1, “GREATER UTILITY WITH THYROID HORMONE” (priority 2009, published 2012).

Experiments:
[1] = extended due to protein binding; human body; cited from earlier work
[2] = tested on: Thyroid Binding Globulin, Transthyretin and Albumin; settings: cited from earlier work; for bound within the blood stream (protein binding): bound by Thyroid Binding Globulin, Transthyretin and Albumin
[3] = Case report: oral thyroid hormone regimens in one subject (Sam) after radioactive iodine ablation for Grave's disease; format: in vivo, human
Protocol: The subject (Sam), of this case report, was treated with radioactive iodine ablation with a relatively low dose. Prior to diagnosis of Grave's disease, Sam was never known to have free T4 levels above median, and had always maintained the same weight +/−3 lbs beyond the age of 18.
Over the next several years, attempting to ameliorate symptoms, Sam attempted to treat the hypothyroid state with the following means: 0.175 mg of T4 OD, resulting in palpitations, anxiety, stiffness, chest tightness, insomnia, sclerotic skin changes, sweating and heat intolerance within 6 months of initiating therapy. The severity of the symptoms required Sam to return to return to 0.15 mg OD of T4 within 1 week of experiencing the symptoms—remaining at that dose for 6 weeks. […] This was followed by an attempt to treat with: 0.125 mg of T4 with 0.005 mg of T3 OD, resulting in palpitations, anxiety, stiffness, chest tightness, insomnia, sclerotic skin changes, sweating and heat intolerance within 3 weeks of initiating therapy. The severity of the symptoms required Sam to return to 0.15 mg OD of T4 within 2 days of experiencing these symptoms—remaining at that dose for 6 weeks with resolution of the adrenergic symptoms. This was followed by an attempt to treat with: 0.035 mg of T3 OD, resulting in palpitations, anxiety, stiffness, chest tightness, insomnia, sclerotic skin changes, sweating and heat intolerance within 1 week of initiating therapy. The severity of the symptoms required Sam to return to 0.15 mg OD of T4 within 1 day of experiencing these symptoms—remaining at that dose for 6 weeks with resolution of the adrenergic symptoms. This was followed by an attempt to treat with: 0.005 mg of T3 q3:25hours, resulting in palpitations, anxiety, stiffness, chest tightness, insomnia, sclerotic skin changes, sweating and heat intolerance within 1 week of initiating therapy. The severity of the symptoms required Sam to return to 0.15 mg OD of T4 within 1 day of experiencing symptoms—remaining at that dose for many years, with continued nasal congestion and dysphoria.
Then the symptoms all stopped. […] Sam continued this dose for several months. […] Dysphoria and nasal congestion were improved over that which was present with once daily dosing, but still remained present, so Sam attempted to treat with the following: 0.075 mg of T4 q6hours, resulting in dysphoria, nasal congestion, and mild to moderate palpitations, anxiety, stiffness, chest tightness, insomnia, sweating and heat intolerance for 2 days, then the symptoms stopped, until Sam changed treatment to: 0.05 mg of T4 q4hours, resulting in dysphoria, nasal congestion, and mild palpitations, anxiety, stiffness, chest tightness, insomnia, sweating and heat intolerance for 2 days, then the symptoms stopped, with an even greater sense of well being than had been experienced on previous treatment regimes, but Sam further increased the dose to: 0.05 mg of T4 q3hrous, resulting in dysphoria, nasal congestion, and mild palpitations, anxiety, stiffness, chest tightness, insomnia, sclerotic skin changes, sweating and heat intolerance for 3 weeks, then the symptoms stopped. Sam remained on this dose for a period of approximately 3 years. […] Weight loss of 40 lbs (with a resulting body fat of 26% by electrical impedance, and lean mass of 100 lbs.) over the first 15 months occurred followed by weight gain of 15 lbs over the next 15 months (with a resulting body fat of 28% by electrical impedance, and lean mass of 108 lbs.). A reduced incidence and duration of common colds was noted, while at steady state over the 3 year period. On one occasion, when the expiry date of T4 administered was several months nearer to the time of administration, than that of T4 typically administered by Sam, within one day, onset of dysphoria, nasal congestion, palpitations, insomnia, anorexia, night sweats, cold sweats, cold intolerance, weakness and the sensation of weight loss occurred; the symptoms resolved within three days. […]

[4] = T3 compared with T4; cited from earlier work
[5] = 0.05 mg of T4 q3hrous, after the first 15 months
[6] = 0.05 mg of T4 q3hrous, after the next 15 months
[7] = 0.05 mg of T4 q3hrous, at 2.7 years
[8] = dose reduced to 0.05 mg of T4 q4hours, within the first 2 weeks

## N[C@@H](Cc1cc(I)c(Oc2ccc(O)c(I)c2)c(I)c1)C(=O)O [T3, 3,5,3′ triiodo-L-thyronine]
[1]
  biological half-life: approximately 1 days
[2]
  bound within the blood stream (protein binding): 99.6%
[3]; 0.005 mg of T3 q3:25hours
  time to palpitations, anxiety, stiffness, chest tightness, insomnia, sclerotic skin changes, sweating and heat intolerance after initiating therapy: ≤ 1 week
[3]; 0.035 mg of T3 OD
  time to palpitations, anxiety, stiffness, chest tightness, insomnia, sclerotic skin changes, sweating and heat intolerance after initiating therapy: ≤ 1 week
[4]
  stability (iodine atoms removed by hydrolysis): more unstable

## N[C@@H](Cc1cc(I)c(Oc2cc(I)c(O)c(I)c2)c(I)c1)C(=O)O [T4, 3,5,3′,5′ tetraiodo-L-thyronine]
[2]; T4 relative to T3
  bound more tightly than T3: roughly 10 times
[2]
  bound within the blood stream (protein binding): 99.96%
[3]; 0.05 mg of T4 q3hrous
  duration of dysphoria, nasal congestion and mild adrenergic symptoms: 3 weeks
[3]; [5]
  body fat by electrical impedance: 26%
  lean mass: 100 lbs
[3]; [6]
  body fat by electrical impedance: 28%
  lean mass: 108 lbs
[3]; 0.05 mg of T4 q3hrous, approximately 3 years, remained far above normal
  Free T4 concentration, gradual decrease: 15%
[3]; [7]
  EKG heart rate (normal sinus rhythm): 71 beats per minute
  blood glucose: normal blood glucose
  lipid profile: exceptional lipid profile
  serum calcium: slightly above the upper limit of normal
[3]; 0.05 mg of T4 q3hrous, over the first 15 months
  weight loss: 40 lbs
[3]; 0.05 mg of T4 q3hrous, over the next 15 months
  weight gain: 15 lbs
[3]; 0.05 mg of T4 q4hours (first time)
  duration of dysphoria, nasal congestion and mild adrenergic symptoms: 2 days
[3]; 0.075 mg of T4 q6hours
  duration of dysphoria, nasal congestion and mild to moderate adrenergic symptoms: 2 days
[3]; 0.075 mg of T4 q8hours
  weight loss: 2-3 pounds
[3]; 0.088 mg of T4 q8hours
  duration of dysphoria, nasal congestion and mild to moderate adrenergic symptoms: three weeks
  effect on previous symptoms (weight gain, body fat increase, insomnia, anorexia, night sweats, cold intolerance, weakness etc.): resolution of the previous symptoms within one week
[3]; 0.088 mg of T4 q8hours, continued for several months
  T4 concentrations: higher than normal range
[3]; 0.1 mg of T4 q8hours
  duration of dysphoria, nasal congestion and mild to moderate adrenergic symptoms: three weeks
  weight gain: 2-3 pounds
[3]; 0.125 mg OD of T4, following several months of treatment
  change in weight (mean, persistent): 5 lbs
[3]; 0.175 mg of T4 OD
  time to palpitations, anxiety, stiffness, chest tightness, insomnia, sclerotic skin changes, sweating and heat intolerance after initiating therapy: ≤ 6 months
[3]; 0.175 mg of T4 OD, in the 6th month
  free T4: free T4 rose
[3]; T4 titrated to doses ranging from 0.1 mg OD to 0.25 mg OD
  free T4 levels: 28 pmol/L
[3]; dose reduced to 0.05 mg of T4 q4hours
  duration of dysphoria, nasal congestion, palpitations, insomnia, anorexia, night sweats, cold intolerance, weakness etc.: 8 weeks
[3]; [8]
  free T4 rise: 22%
  weight loss: 2-3 lbs
